Values of other authors as cited in US3963579A, “Microbiological process for the production of pepstatins” (Sanraku-Ocean Co., Ltd., priority 1973, dated 1976).
Square brackets hold non-standard residues; d marks the D form. Peptide text beside a SMILES is read from it. * marks the point of attachment. Sta = CC(C)C[C@H](N)[C@@H](O)CC(=O)O; Isovaleryl = CC(C)CC(=O)*

Conditions: clinical, reported

SMILES: CC(C)CC(=O)N[C@H](C(=O)N[C@H](C(=O)N[C@@H](CC(C)C)[C@@H](O)CC(=O)N[C@@H](C)C(=O)N[C@@H](CC(C)C)[C@@H](O)CC(=O)O)C(C)C)C(C)C [pepstatin A] (Isovaleryl-VV[Sta]A[Sta]-OH)
- effect on gastric ulcers clinically: takes effect on gastric ulcers clinically
